What all share (assay type): in vivo
Data set [1] relates to carrageenan-induced rat paw edema. In words: Carrageenan-induced rat paw edema method. In general terms: In the carrageenan paw model, swelling and tenderness develop within hours.
In data set [2] the test system is cotton pellet induced granulation tissue formation. In words: Cotton pellet induced granulation tissue formation method. Particulars: dose 200 mg/Kg b.w. (5e, 5f: 150).
Data set [3] has as its system ulcers. In words: Ulcerogenecity, arbitrary ulcer scoring system. Particulars: dose 200 mg/Kg b.w. (5e, 5f: 150); p in parentheses.
Data set [4] has as its system adrenal weight. In words: Adrenal weight change method. The settings on record: suppression of adrenal weights; dose 200 mg/Kg b.w. (5e, 5f: 150).
Data set [5] deals with radiant heat induced rat tail flick. In words: Radiant heat induced rat tail flick method. The settings on record: dose 200 mg/Kg b.w. (5e, 5f: 150). Background: Hot-plate and tail-flick tests time the reaction to a heat stimulus.
The test system of data set [6] is maximum electroshock seizure. In words: Maximum electroshock seizure. The settings on record: dose 200 mg/Kg b.w. (5e, 5f: 150); Fischer's exact test.

Structures are written as SMILES.

Regarding `CC(=O)Oc1ccccc1C(=O)O` [aspirin], the “Antiinflammatory activity Percentage Inhibition, Carrageenan method, 1 h” value in data set [1] (1 h, dose 200 mg/Kg b.w. (5e, 5f: 150)) is 54.84%. Further, the “Antiinflammatory activity Percentage Inhibition, Carrageenan method, 3 h” value in data set [1] (3 h, dose 200 mg/Kg b.w. (5e, 5f: 150)) is reported as 55.05%. Also, in data set [1] (6 h as printed in the text), the “Antiinflammatory activity, carrageenan-induced rat paw edema, after 6 h” value was 73.81%. The “Antiinflammatory activity Percentage Inhibition, Cotton pellet method” value in data set [2] amounted to 41.88%. The Ulcer index in data set [3] is reported as 43.33. Also, the “Antiinflammatory activity Percentage Inhibition, Adrenal weight method” value in data set [4] worked out at 50.13%. Further, the “Analgesic activity percent protection, Rat tail flick method” value in data set [5] is 49.39%.
In the case of `O=C1NC(=O)C(c2ccccc2)(c2ccccc2)N1` [phenytoin sodium], in data set [6], the “Anticonvulsant activity, MES protection” value is given as 100%.
